According to the NIST ThermoML archive (doi:10.1021/acs.jced.7b00507):
Numbers after ± are expanded uncertainties.

Experiment: mn = molality of the nth substance listed, in mol/kg
Settings: 100 kPa, Liquid, Pycnometric method

Row | mass density (293.15 K, m1 = 0.6199) | mass density (303.15 K, m1 = 0.8756) | mass density (313.15 K, m1 = 1.222) | mass density (323.15 K, m1 = 1.908) | SMILES | mass density (293.15 K, m1 = 3.129) | mass density (303.15 K, m1 = 4.532) | mass density (313.15 K, m1 = 6.615) | mass density (323.15 K, m1 = 8.465)
1 |  |  |  |  | O=[N+]([O-])[O-].[K+] [potassium nitrate] + O | 1167 ± 12 kg/m3 | 1217.1 ± 12 kg/m3 | 1269.4 ± 13 kg/m3 | 1321 ± 14 kg/m3
2 | 1060.4 ± 11 kg/m3 | 1081.6 ± 11 kg/m3 | 1111 ± 11 kg/m3 | 1156 ± 12 kg/m3 | [K+].[O]=[V](=[O])[O-] [potassium vanadate] + O |  |  |  | 
